# Laboratory results: patent US6251894A, “1-(1,2-disubstituted piperidinyl)-4 (fused imidazole)-piperidine derivatives” (Janssen Pharmaceuticals N.V., priority 1995, dated 2001)
# System: Substance P Induced Relaxation of the Pig Coronary Arteries
# Test: Antagonism of substance P induced relaxation of the pig coronary arteries
# Settings: test compound concentration 3 × 10^-8 (unit not given), 30 min incubation
# Procedure: Antagonism of Substance P Induced Relaxation of the Pig Coronary Arteries
# Segments of coronary arteries taken from pigs (killed by injection of an overdose of sodium pentobarbital) were inverted and mounted for recording of isometric tension in organ baths (volume 20 ml) with the endothelium at the outside. The preparations were bathed in Krebs-Henseleit solution. The solution was kept at 37° C. and gassed with a mixture of O2 /CO2 (95/5). After stabilisation of the preparations, prostaglandin F2α (10^-5 M) was administered to induce a contraction. This was repeated until contractile responses became stable. Then prostaglandin F2α was again administered and substance P (3×10^-10 M and 10^-9 M cumulatively) was added. Substance P induced endothelium dependent relaxations. After washing away the agonists, a known concentration of a compound of formula (I) was added. After an incubation period of 30 minutes, prostaglandin F2α (10^-5 M) and the same concentrations of substance P as described above were again administered in the presence of the compound to be tested.
row,Compound,% inhibition of the response to 10^-9 M substance P
1,O=C(c1cc(C(F)(F)F)cc(C(F)(F)F)c1)N1CC[C@@H](N2CCC(=C3c4sccc4CCn4ccnc43)CC2)C[C@H]1Cc1ccccc1 (relative stereo) [Compound 6],93.9%

# Same assay, conditions: test compound concentration 3 × 10^-9 (unit not given), 30 min incubation
row,Compound,% inhibition of the response to 10^-9 M substance P
1,Cc1cc(C)cc(C(=O)N2CC[C@@H](N3CCC(C4c5ccccc5CCn5ccnc54)CC3)C[C@H]2Cc2ccccc2)c1 (stereo partly shown) [Compound 26],25.6%
2,Cc1cc(C)cc(C(=O)N2CC[C@@H](N3CCC4(CC3)c3ccccc3CCn3ccnc34)C[C@@H]2Cc2ccccc2)c1 (relative stereo) [Compound 120],7.7%
3,O=C(c1cc(C(F)(F)F)cc(C(F)(F)F)c1)N1CC[C@@H](N2CCC(=C3c4ccsc4CCn4ccnc43)CC2)C[C@@H]1Cc1ccccc1 (relative stereo) [Compound 19],78.1%
4,Cc1cc(C)cc(C(=O)N2CC[C@@H](N3CCC(=C4c5sccc5CCn5ccnc54)CC3)C[C@H]2Cc2ccccc2)c1 (relative stereo) [Compound 35],27.7%
5,Cc1cn2c(n1)C(=C1CCN([C@H]3CCN(C(=O)c4cc(C(F)(F)F)cc(C(F)(F)F)c4)[C@H](Cc4ccccc4)C3)CC1)c1ccn(C)c1CC2 (relative stereo) [Compound 60],89.9%
6,O=C(c1cc(C(F)(F)F)cc(C(F)(F)F)c1)N1CC[C@@H](N2CCC(=C3c4ccccc4CCn4ccnc43)CC2)C[C@H]1Cc1ccccc1 (relative stereo) [Compound 23],13.4%
7,Cc1cc(C)cc(C(=O)N2CC[C@H](N3CCC(=C4c5ccccc5CCn5c4nc4ccccc45)CC3)C[C@@H]2Cc2ccccc2)c1 (relative stereo) [Compound 45],7.9%
8,O=C(c1ccccc1)N1CC[C@@H](N2CCC(C3c4ccccc4Cn4c3nc3ccccc34)CC2)C[C@@H]1Cc1ccccc1 (stereo partly shown) [Compound 75],13.7%
9,O=C(c1ccc(Cl)c(Cl)c1)N1CC[C@@H](N2CCC(C3c4ccccc4Cn4c3nc3ccccc34)CC2)C[C@@H]1Cc1ccccc1 (stereo partly shown) [Compound 103],8.3%
10,Cc1cc(C)cc(C(=O)N2CCC(N3CCC(C4c5ccccc5CCn5c4nc4ccccc45)CC3)CC2Cc2ccccc2)c1 (stereo not shown) [Compound 65],27.3%
11,O=C(c1cc(C(F)(F)F)cc(C(F)(F)F)c1)N1CC[C@H](N2CCC(=C3c4ccccc4CCn4c(Cl)cnc43)CC2)C[C@@H]1Cc1ccccc1 (relative stereo) [Compound 62],49.0%
12,Cc1c(C(=O)N2CC[C@@H](N3CCC(C4c5ccccc5Cn5c4nc4ccccc45)CC3)C[C@@H]2Cc2ccccc2)oc2ccccc12 (stereo partly shown) [Compound 101],11.8%
13,Cc1cc(C)cc(C(=O)N2CC[C@@H](N3CCC(C4c5ccccc5Cn5ccnc54)CC3)C[C@@H]2Cc2ccccc2)c1 (stereo partly shown) [Compound 109],13.5%
14,O=C(c1cc(C(F)(F)F)cc(C(F)(F)F)c1)N1CC[C@@H](N2CCC(C3c4ccccc4Cn4ccnc43)CC2)C[C@@H]1Cc1ccccc1 (stereo partly shown) [Compound 116],69.6%
15,COC(=O)c1cnc2n1CCc1ccsc1C2=C1CCN([C@@H]2CCN(C(=O)c3cc(C)cc(C)c3)[C@@H](Cc3ccccc3)C2)CC1 (relative stereo) [Compound 36],23.7%
16,Cc1cc(C)cc(C(=O)N2CCC(N3CCC(C4c5ccccc5Cn5c4nc4ccccc45)CC3)CC2Cc2ccccc2)c1 (stereo not shown) [Compound 69],8%
17,O=C(c1cc(C(F)(F)F)cc(C(F)(F)F)c1)N1CC[C@H](N2CCC(C3c4ccccc4CCn4c3nc3ccccc34)CC2)C[C@H]1Cc1ccc(F)c(F)c1 (stereo partly shown) [Compound 68],93.1%

row,Compound,% inhibition of the response to 10^-9 M substance P
1,O=C(c1cc(C(F)(F)F)cc(C(F)(F)F)c1)N1CCC(N2CCC(C3c4ccccc4Cn4ccnc43)CC2)CC1Cc1ccccc1 (stereo not shown) [Compound 115],60.2%
2,Cc1cc(C)cc(C(=O)N2CC[C@H](N3CCC(C4c5ccccc5CCn5c4nc4ccccc45)CC3)C[C@H]2Cc2ccccc2)c1 (stereo partly shown) [Compound 66],56.6%
3,O=C(c1cc2ccccc2s1)N1CCC(N2CCC(C3c4ccccc4Cn4c3nc3ccccc34)CC2)CC1Cc1ccccc1 (stereo not shown) [Compound 94],8.2%
4,Cc1cc(C)cc(C(=O)N2CC[C@H](N3CCC(=C4c5ccccc5CCn5c(Cl)cnc54)CC3)C[C@H]2Cc2ccccc2)c1 (relative stereo) [Compound 44],63.9%
5,Cc1cc(C)cc(C(=O)N2CC[C@H](N3CCC(=C4c5ccc(C)cc5CCn5ccnc54)CC3)C[C@H]2Cc2ccccc2)c1 (relative stereo) [Compound 57],66.7%
6,O=C(c1ccc2ncsc2c1)N1CC[C@@H](N2CCC(C3c4ccccc4Cn4c3nc3ccccc34)CC2)C[C@@H]1Cc1ccccc1 (stereo partly shown) [Compound 102],17%
7,Cc1ccc2c(c1)CCn1ccnc1C2=C1CCN([C@H]2CCN(C(=O)c3cc(C(F)(F)F)cc(C(F)(F)F)c3)[C@H](Cc3ccccc3)C2)CC1 (relative stereo) [Compound 51],86.3%
8,Cc1cc(C)cc(C(=O)N2CC[C@@H](N3CCC(=C4c5ccccc5CCn5c(C=O)cnc54)CC3)C[C@H]2Cc2ccccc2)c1 (relative stereo) [Compound 24],38.3%
9,O=C(c1ccccc1)N1CCC(N2CCC(C3c4ccccc4Cn4c3nc3ccccc34)CC2)CC1Cc1ccccc1 (stereo not shown) [Compound 73],2.8%
10,O=C(c1cc(C(F)(F)F)cc(C(F)(F)F)c1)N1CC[C@H](N2CCC(C3c4ccccc4CCn4c3nc3ccccc34)CC2)C[C@H]1Cc1ccccc1 (stereo partly shown) [Compound 13],74.2%
11,O=C(c1cc(C(F)(F)F)cc(C(F)(F)F)c1)N1CC[C@H](N2CCC(=C3c4ccccc4CCn4c(Cl)cnc43)CC2)C[C@H]1Cc1ccccc1 (relative stereo) [Compound 58],91.5%
12,O=C(Nc1cc(C(F)(F)F)cc(C(F)(F)F)c1)N1CC[C@@H](N2CCC(C3c4ccccc4Cn4c3nc3ccccc34)CC2)C[C@@H]1Cc1ccccc1 (stereo partly shown) [Compound 100],13.9%
13,CC(C(=O)N1CCC(N2CCC(=C3c4ccccc4CCn4ccnc43)CC2)CC1Cc1ccccc1)c1ccccc1 (stereo not shown) [Compound 85],1.8%
14,O=C(c1cc(Cl)cc(Cl)c1)N1CC[C@H](N2CCC(=C3c4ccccc4CCn4ccnc43)CC2)C[C@H]1Cc1ccccc1 (relative stereo) [Compound 48],59.7%
15,Cc1ccc2c(c1)CCn1ccnc1C2=C1CCN([C@H]2CCN(C(=O)c3cc(C(F)(F)F)cc(C(F)(F)F)c3)[C@@H](Cc3ccccc3)C2)CC1 (relative stereo) [Compound 50],25%
16,O=C(c1cc(C(F)(F)F)cc(C(F)(F)F)c1)N1CCC(N2CCC(=C3c4ccc(Cl)cc4CCn4ccnc43)CC2)CC1Cc1ccccc1 (stereo not shown) [Compound 32],71.6%
17,O=C(c1ccc2ncsc2c1)N1CCC(N2CCC(C3c4ccccc4Cn4c3nc3ccccc34)CC2)CC1Cc1ccccc1 (stereo not shown) [Compound 96],17.3%

# System: Substance P Induced Plasma Extravasation
# Test: Antagonism of substance P induced plasma extravasation in guinea-pigs
# Assay type: in vivo, guinea-pig
# Settings: Cavia porcellus, sc, 10 min; s.c., 1 hour prior to substance P; conjunctiva; read-out: lowest active dose (LAD), conjunctiva
# Procedure: Antagonism of Substance P Induced Plasma Extravasation in Guinea-pigs
# Plasma travasation was induced by injection of substance P (2 mg/kg) in the femoral artery of female guinea-pigs. Evans Blue dye (30 mg/kg) was injected simultaneously. The test compound or solvent was administered subcutaneous (s.c.) or orally (p.o.) 1 hour prior to substance P injection. 10 minutes after challenge, the animals were checked for blue colouring (a direct measure for plasma extravasation) of the nose, the forepaws, and the conjunctiva. 30 minutes after challenge, the animals were sacrificed by CO2 gas inhalation and checked for blue colouring of the trachea and the urinary bladder. […]
row,Compound,minimal effective dose
1,Cc1cc(C)cc(C(=O)N2CC[C@@H](N3CCC(C4c5ccccc5CCn5ccnc54)CC3)C[C@H]2Cc2ccccc2)c1 (stereo partly shown) [Compound 26],10 mg/kg
2,Cc1cc(C)cc(C(=O)N2CC[C@@H](N3CCC4(CC3)c3ccccc3CCn3ccnc34)C[C@@H]2Cc2ccccc2)c1 (relative stereo) [Compound 120],2.5 mg/kg
3,O=C(c1cc(C(F)(F)F)cc(C(F)(F)F)c1)N1CC[C@@H](N2CCC(=C3c4ccsc4CCn4ccnc43)CC2)C[C@@H]1Cc1ccccc1 (relative stereo) [Compound 19],2.5 mg/kg
4,Cc1cc(C)cc(C(=O)N2CC[C@@H](N3CCC(=C4c5sccc5CCn5ccnc54)CC3)C[C@H]2Cc2ccccc2)c1 (relative stereo) [Compound 35],10 mg/kg

# Same assay, conditions: Cavia porcellus, sc, 10 min; s.c., 1 hour prior to substance P; forepaws; read-out: lowest active dose (LAD), forepaws
row,Compound,minimal effective dose
1,Cc1cc(C)cc(C(=O)N2CC[C@@H](N3CCC(C4c5ccccc5CCn5ccnc54)CC3)C[C@H]2Cc2ccccc2)c1 (stereo partly shown) [Compound 26],10 mg/kg
2,Cc1cc(C)cc(C(=O)N2CC[C@@H](N3CCC4(CC3)c3ccccc3CCn3ccnc34)C[C@@H]2Cc2ccccc2)c1 (relative stereo) [Compound 120],2.5 mg/kg
3,O=C(c1cc(C(F)(F)F)cc(C(F)(F)F)c1)N1CC[C@@H](N2CCC(=C3c4ccsc4CCn4ccnc43)CC2)C[C@@H]1Cc1ccccc1 (relative stereo) [Compound 19],2.5 mg/kg
4,Cc1cc(C)cc(C(=O)N2CC[C@@H](N3CCC(=C4c5sccc5CCn5ccnc54)CC3)C[C@H]2Cc2ccccc2)c1 (relative stereo) [Compound 35],10 mg/kg

# Same assay, conditions: Cavia porcellus, sc, 10 min; s.c., 1 hour prior to substance P; nose; read-out: lowest active dose (LAD), nose
row,Compound,minimal effective dose
1,Cc1cc(C)cc(C(=O)N2CC[C@@H](N3CCC(C4c5ccccc5CCn5ccnc54)CC3)C[C@H]2Cc2ccccc2)c1 (stereo partly shown) [Compound 26],10 mg/kg
2,Cc1cc(C)cc(C(=O)N2CC[C@@H](N3CCC4(CC3)c3ccccc3CCn3ccnc34)C[C@@H]2Cc2ccccc2)c1 (relative stereo) [Compound 120],2.5 mg/kg
3,O=C(c1cc(C(F)(F)F)cc(C(F)(F)F)c1)N1CC[C@@H](N2CCC(=C3c4ccsc4CCn4ccnc43)CC2)C[C@@H]1Cc1ccccc1 (relative stereo) [Compound 19],2.5 mg/kg
4,Cc1cc(C)cc(C(=O)N2CC[C@@H](N3CCC(=C4c5sccc5CCn5ccnc54)CC3)C[C@H]2Cc2ccccc2)c1 (relative stereo) [Compound 35],10 mg/kg

# Same assay, conditions: Cavia porcellus, sc, 0.5 h; s.c., 1 hour prior to substance P; trachea; read-out: lowest active dose (LAD), trachea
row,Compound,minimal effective dose
1,Cc1cc(C)cc(C(=O)N2CC[C@@H](N3CCC(C4c5ccccc5CCn5ccnc54)CC3)C[C@H]2Cc2ccccc2)c1 (stereo partly shown) [Compound 26],10 mg/kg
2,Cc1cc(C)cc(C(=O)N2CC[C@@H](N3CCC4(CC3)c3ccccc3CCn3ccnc34)C[C@@H]2Cc2ccccc2)c1 (relative stereo) [Compound 120],10 mg/kg
3,O=C(c1cc(C(F)(F)F)cc(C(F)(F)F)c1)N1CC[C@@H](N2CCC(=C3c4ccsc4CCn4ccnc43)CC2)C[C@@H]1Cc1ccccc1 (relative stereo) [Compound 19],2.5 mg/kg
4,Cc1cc(C)cc(C(=O)N2CC[C@@H](N3CCC(=C4c5sccc5CCn5ccnc54)CC3)C[C@H]2Cc2ccccc2)c1 (relative stereo) [Compound 35],10 mg/kg

# Same assay, conditions: Cavia porcellus, sc, 0.5 h; s.c., 1 hour prior to substance P; urinary bladder; read-out: lowest active dose (LAD), urinary bladder
row,Compound,minimal effective dose
1,Cc1cc(C)cc(C(=O)N2CC[C@@H](N3CCC(C4c5ccccc5CCn5ccnc54)CC3)C[C@H]2Cc2ccccc2)c1 (stereo partly shown) [Compound 26],10 mg/kg
2,Cc1cc(C)cc(C(=O)N2CC[C@@H](N3CCC4(CC3)c3ccccc3CCn3ccnc34)C[C@@H]2Cc2ccccc2)c1 (relative stereo) [Compound 120],10 mg/kg
3,O=C(c1cc(C(F)(F)F)cc(C(F)(F)F)c1)N1CC[C@@H](N2CCC(=C3c4ccsc4CCn4ccnc43)CC2)C[C@@H]1Cc1ccccc1 (relative stereo) [Compound 19],10 mg/kg
4,Cc1cc(C)cc(C(=O)N2CC[C@@H](N3CCC(=C4c5sccc5CCn5ccnc54)CC3)C[C@H]2Cc2ccccc2)c1 (relative stereo) [Compound 35],10 mg/kg
